Test results published in ChEMBL document CHEMBL1124213, “Structure-activity relationships among benextramine-related tetraamine disulfides. Chain length effect on alpha-adrenoreceptor blocking activity” (J Med Chem, 1988).

How the values were obtained:
[1] = organism: Rattus norvegicus; assay: Alpha-1-adrenoceptor blocking activity by antagonism of (-)-norepinephrine induced contractions of epididymal portion of rat vas deferens; format: functional
[2] = target: Adrenergic receptor alpha (Rattus norvegicus) (UniProt P15823+P23944+P43140+P22086+P19328+P22909); assay: Ratio of IC50 towards alpha1 to alpha-2 receptors of rat vas deferens; format: protein assay
[3] = organism: Rattus norvegicus; assay: Alpha-1-adrenoceptor blocking activity by antagonism of (-)-norepinephrine induced contractions of epididymal portion of rat vas deferens; Inactive up to a concentration of 20 uM; format: functional
[4] = Inhibition of ADP induced human blood platelet aggregation; format: functional
[5] = Inhibition of epinephrine induced human blood platelet aggregation; format: functional
[6] = target: T1, Adrenergic receptor alpha-2 (Rattus norvegicus, UniProt P22086+P19328+P22909); assay: Alpha-2 adrenergic receptor blocking activity by antagonism of clonidine induced depression of twitch response of field stimulated prostatic portion of rat vas deferens; format: functional, tissue-based
T1 sequence (P22086 whole entry): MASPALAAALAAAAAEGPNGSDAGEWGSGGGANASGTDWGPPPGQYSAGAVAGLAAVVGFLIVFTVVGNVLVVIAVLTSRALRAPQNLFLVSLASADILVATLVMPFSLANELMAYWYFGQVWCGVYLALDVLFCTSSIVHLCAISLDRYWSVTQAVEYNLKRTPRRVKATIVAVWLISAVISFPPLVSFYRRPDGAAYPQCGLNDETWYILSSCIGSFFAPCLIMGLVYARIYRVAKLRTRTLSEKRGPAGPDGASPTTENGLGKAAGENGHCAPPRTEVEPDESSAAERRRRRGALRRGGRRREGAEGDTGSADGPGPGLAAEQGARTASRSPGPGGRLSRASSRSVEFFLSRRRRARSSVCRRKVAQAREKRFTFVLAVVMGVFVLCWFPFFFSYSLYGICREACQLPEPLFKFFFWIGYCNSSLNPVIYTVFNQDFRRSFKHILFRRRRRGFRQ
T1 sequence (P19328 whole entry): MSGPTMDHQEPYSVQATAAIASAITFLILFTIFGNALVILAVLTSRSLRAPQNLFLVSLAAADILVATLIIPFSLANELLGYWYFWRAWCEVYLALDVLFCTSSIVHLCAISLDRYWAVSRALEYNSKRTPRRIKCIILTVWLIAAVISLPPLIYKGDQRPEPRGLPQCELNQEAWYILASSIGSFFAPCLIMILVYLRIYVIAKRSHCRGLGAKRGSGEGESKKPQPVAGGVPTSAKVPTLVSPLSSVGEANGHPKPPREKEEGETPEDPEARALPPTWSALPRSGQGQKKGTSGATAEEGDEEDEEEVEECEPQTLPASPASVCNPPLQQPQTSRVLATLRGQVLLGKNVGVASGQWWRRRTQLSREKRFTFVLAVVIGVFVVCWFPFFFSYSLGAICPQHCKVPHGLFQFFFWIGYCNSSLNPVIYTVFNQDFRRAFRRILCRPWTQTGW
T1 sequence (P22909 whole entry): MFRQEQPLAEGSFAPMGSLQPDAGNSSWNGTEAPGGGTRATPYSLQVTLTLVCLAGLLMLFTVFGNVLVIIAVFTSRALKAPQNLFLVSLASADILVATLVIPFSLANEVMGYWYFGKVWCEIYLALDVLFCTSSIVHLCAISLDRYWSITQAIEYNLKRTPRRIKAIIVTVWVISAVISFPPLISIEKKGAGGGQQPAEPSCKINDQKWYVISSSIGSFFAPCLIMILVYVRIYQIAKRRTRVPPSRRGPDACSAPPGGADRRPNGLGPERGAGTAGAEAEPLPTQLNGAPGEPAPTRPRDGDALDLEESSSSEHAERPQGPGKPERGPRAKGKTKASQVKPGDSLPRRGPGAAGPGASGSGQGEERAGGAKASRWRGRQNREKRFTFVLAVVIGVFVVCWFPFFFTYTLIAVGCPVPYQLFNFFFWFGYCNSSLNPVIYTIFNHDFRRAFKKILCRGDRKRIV

| Structure (SMILES) | IC50 [1] [µM] | Selectivity [2] | IC50 [3] | IC50 [4] [µM] | IC50 [5] [µM] | IC50 [6] [µM] |
| --- | --- | --- | --- | --- | --- | --- |
| C1=CC(CNCCCCCCCCCCCCNCCSSCCNCCCCCCCCCCCCNCC2C=CC=N2)N=C1 (stereo unspecified) | 7.3 | < 0.37 | – | – | – | – |
| COc1ccccc1CNCCCCCCNCCCCCCNCCSSCCNCCCCCCNCCCCCCNCc1ccccc1OC.Cl.O | – | – | Not Active | – | – | – |
| COc1ccccc1CNCCCCCCCCCCCNCCSSCCNCCCCCCCCCCCNCc1ccccc1OC | 51.3 | < 2.57 | – | 2.1 | 1.7 | – |
| COc1ccccc1CNCCCCCNCCSSCCNCCCCCNCc1ccccc1OC | 55.8 | 2.16 | – | 87 | 46 | 25.8 |
| Nc1ncnc2c1ncn2[C@@H]1O[C@H](CO)[C@@H](O)[C@H]1O [ADENOSINE] | – | – | – | 2.5 | 1.8 | – |
| COc1ccccc1CNCCC(=O)NCCCCCCCCNCCSSCCNCCCCCCCCNC(=O)CCNCc1ccccc1OC | – | – | Not Active | – | – | – |
| COc1ccccc1CNCCCCCC(=O)NCCCCCCNCCSSCCNCCCCCCNC(=O)CCCCCNCc1ccccc1OC | – | – | Not Active | – | – | – |
| COc1ccccc1CNCCCNCCCCCCCCNCCSSCCNCCCCCCCCNCCCNCc1ccccc1OC.Cl.O | – | – | Not Active | – | – | – |
| COc1ccccc1CNCCCCCCCCCCCCN(C)CCSSCCN(C)CCCCCCCCCCCCNCc1ccccc1OC | 46.9 | < 2.35 | – | – | – | – |
| COc1ccccc1CNCCCCCCCCCCCCNCCSSCCNCCCCCCCCCCCCNCc1ccccc1OC | 8.23 | < 0.41 | – | 2.1 | 1.7 | – |

Results, then the compound that gave them:

| IC50 [1] [µM] | Selectivity [2] | IC50 [3] | IC50 [4] [µM] | IC50 [5] [µM] | IC50 [6] [µM] | Structure (SMILES) |
| --- | --- | --- | --- | --- | --- | --- |
| 68 | < 3.4 | – | 6 | 2.3 | – | COc1ccccc1CNCCCCCCCCCNCCSSCCNCCCCCCCCCNCc1ccccc1OC |
| 98.5 | 80.7 | – | 22.7 | 5.4 | 1.22 | COc1ccccc1CNCCCCCCCCNCCSSCCNCCCCCCCCNCc1ccccc1OC |
| 62.8 | < 3.14 | – | 2.8 | 2.2 | – | COc1ccccc1CNCCCCCCCCCCNCCSSCCNCCCCCCCCCCNCc1ccccc1OC |
| 7.55 | 9.2 | – | 97 | 31.3 | 0.82 | COc1ccccc1CNCCCCCCNCCSSCCNCCCCCCNCc1ccccc1OC [BENEXTRAMINE] |
| 55.2 | 53.1 | – | 41.3 | 20.6 | 1.04 | COc1ccccc1CNCCCCCCCNCCSSCCNCCCCCCCNCc1ccccc1OC |
